# According to patent US20250351832A1, “PHYTOCHEMICALS AS BIOPESTICIDES AND BIOSTIMULANTS” (KAY BEE BIO ORGANICS PVT. LTD., priority 2024, published 2025):
# Read-outs that look alike come from different tables or passages of the source.
# Experiments:
# Aphid [1] = conditions: Aphids on cotton plants, green house; dose 1 ml/gm/lit.; 10 insects/plant, 10 plants/treatment; 48 hrs
# Helicoverpa armigera [2] = conditions: Helicoverpa armigera 3rd instar on chickpea plants, dose 1 ml/gm/lit. spray; for % Mortality at 72 Hrs.: 72 hrs after application; for % Corrected Mortality at 72 Hrs.: corrected for water control
# [3] = cited from earlier work; for Phytotonic Effect: Table 13, effect on plants, descriptive
# Mealy Bug [4] = conditions: mealy bug on cotton plants, green house, dose 1 ml/gm/lit. spray; for % Mortality at 48 Hrs. / Total No. of dead insect at 48 Hrs.: 48 hrs after application; for % Corrected Mortality at 48 Hrs.: corrected for water control
# chili seedlings = assay: Response of chili plants, greenhouse growth (Ex. 31); format: in vivo; conditions: chili seedlings, dose 1 ml/gm/lit; for CCI 5th Day / Plant Height (cm) 5th Day: 5th day after application; for CCI 10th Day / Plant Height (cm) 10th Day: 10th day after application; for CCI % Increase over pre on 10th Day / Plant Height % Increase over pre on 10th Day / Root Lenght (cm) 10th Day / Stem Girth % Increase over pre on 10th Day / Root Lenght % Increase over control: 10th day; for Root Lenght % Increase over control: vs water control
# Thrips [5] = conditions: thrips on cotton plants, greenhouse, dose 1 ml/gm/lit. spray; for % Mortality at 48 Hrs. / Total No. of dead insect at 48 Hrs.: 48 hrs after application; for % Corrected Mortality at 48 Hrs.: corrected for water control
# Alternaria alternata [6] = assay: Alternaria leaf spot/blight on inoculated tomato plants (Ex. 28); format: in vivo; conditions: tomato plants, Alternaria alternata; after 7 days; dose 1 ml/gm/lit
# Spodoptera litura [7] = conditions: Spodoptera litura 3rd instar on cabbage plants, dose 1 ml/gm/lit. spray; for % Mortality at 72 Hrs.: 72 hrs after application; for % Corrected Mortality at 72 Hrs.: corrected for water control
# Mite [8] = conditions: Dose 1 ml/gm/lit.; for Total No. of dead insect at 48 Hrs.: 10 insects/treatment, 4 replications, okra leaves
# tomato seedlings = assay: Response of tomato plants, greenhouse growth (Ex. 30); format: in vivo; conditions: tomato seedlings, dose 1 ml/gm/lit; for Plant Height 5th Day / Stem Girth 5th Day / CCI 5th Day: 5th day after application; for Plant Height 10th Day / Stem Girth 10th Day / CCI 10th Day: 10th day after application; for Plant Height % Increase over pre on 10th Day / Stem Girth % Increase over pre on 10th Day / CCI % Increase over pre on 10th Day / Root Length (cm) 10th Day / Root Length % Increase over control: 10th day; for Root Length % Increase over control: vs water control
# Spodoptera litura [9] = assay: whole plant or invertebrate; conditions: 72 h
# Thrips [10] = conditions: Thrips on cotton leaves; dose 1 ml/gm/lit.; 10 insects/treatment; 48 hrs after application
# Aphid [11] = conditions: Dose 1 ml/gm/lit.; for Total No. of dead insect at 48 Hrs.: 10 insects/treatment, 4 replications, cotton leaves
# Aphid [12] = assay: whole plant or invertebrate; conditions: 48 h
# Mite [13] = conditions: mite on okra plants, green house, dose 1 ml/gm/lit. spray; for % Mortality at 48 Hrs. / Total No. of dead insect at 48 Hrs.: 48 hrs after application; for % Corrected Mortality at 48 Hrs.: corrected for water control
# Spodoptera litura [14] = conditions: Spodoptera litura on castor leaves; dose 1 ml/gm/lit.; 10 insects/treatment; 72 hrs after application
# Mealy Bug [15] = conditions: Mealy Bug on cotton leaves, dose 1 ml/gm/lit., 48 Hrs.; for Total No. of dead insect at 48 Hrs.: 10 insects/treatment, 4 replications; for % Corrected Mortality at 48 Hrs.: corrected for water control
# Helicoverpa armigera [16] = conditions: Helicoverpa armigera on okra fruits, dose 1 ml/gm/lit., 72 Hrs.; for Total No. of dead insect at 72 Hrs.: 10 insects/treatment, 4 replications; for % Corrected Mortality at 72 Hrs.: corrected for water control
# Thrips [17] = assay: whole plant or invertebrate; conditions: in Gossypium hirsutum, 48 h
# Alternaria alternata [18] = assay: In vitro poisoned food technique against fungus (Ex. 20); format: cell-based
# [19] = Table 13, descriptive, no test described
# [20] = read-out: % Corrected Mortality at 72 Hrs.
# [21] = read-out: % Mortality at 72 Hrs.
# [22] = read-out: % Corrected Mortality at 48 Hrs.
# [23] = read-out: % Mortality at 48 Hrs.
# [24] = poisoned food technique, PDA medium, dose 1 ml/gm/lit., after seven days
smiles,measurement,setting,value
CCCCCCCCCCCCCCCC(=O)O [Palmitic acid],Total No. of dead insect at 48 Hrs.,Aphid [1],70.00
same,% Mortality at 72 Hrs.,Helicoverpa armigera [2],40.00%
same,% Corrected Mortality at 72 Hrs.,Helicoverpa armigera [2],40.00%
same,Acaricidal Activity - Mode of action,[3]; [19],Exhibited potent acaricidal
same,Antifungal Activity - Mode of action,[3]; [19],Strongest antifungal
same,Bactericidal Activity - Mode of action,[3]; [19],Destroyed or disintegrated
same,Nematicidal Activity - Mode of action,[3]; [19],Repelling nematodes
same,Phytotonic Effect,[3],Optimize soil
same,% Mortality at 48 Hrs.,Mealy Bug [4],55.00%
same,Total No. of dead insect at 48 Hrs.,Mealy Bug [4],55.00
same,% Corrected Mortality at 48 Hrs.,Mealy Bug [4],50.00%
same,CCI 5th Day,chili seedlings,13.04
same,Plant Height (cm) 5th Day,chili seedlings,6.30 cm
same,CCI % Increase over pre on 10th Day,chili seedlings,56.37%
same,Plant Height % Increase over pre on 10th Day,chili seedlings,68.98%
same,Root Lenght (cm) 10th Day,chili seedlings,4.41 cm
same,Stem Girth % Increase over pre on 10th Day,chili seedlings,58.78%
same,CCI 10th Day,chili seedlings,15.95
same,Plant Height (cm) 10th Day,chili seedlings,7.3 cm
same,Root Lenght % Increase over control,chili seedlings,61.00%
same,% Mortality at 48 Hrs.,Thrips [5],40.00%
same,Total No. of dead insect at 48 Hrs.,Thrips [5],40.00
same,% Corrected Mortality at 48 Hrs.,Thrips [5],33.33%
same,% Disease reduction over Control,Alternaria alternata [6],50.41%
same,% Mortality at 72 Hrs.,Spodoptera litura [7],27.50%
same,% Corrected Mortality at 72 Hrs.,Spodoptera litura [7],23.68%
same,Total No. of dead insect at 48 Hrs.,Mite [8],4.25
same,% Corrected Mortality at 48 Hrs.,Mite [8],37.84%
same,% Mortality at 48 Hrs.,Mite [8],42.50%
same,Plant Height 5th Day,tomato seedlings,7.14 cm
same,Stem Girth 5th Day,tomato seedlings,1.79 mm
same,Plant Height 10th Day,tomato seedlings,8.54 cm
same,Stem Girth 10th Day,tomato seedlings,2.32 mm
same,Plant Height % Increase over pre on 10th Day,tomato seedlings,41.16%
same,Stem Girth % Increase over pre on 10th Day,tomato seedlings,76.92%
same,CCI 5th Day,tomato seedlings,13.26
same,CCI % Increase over pre on 10th Day,tomato seedlings,33.42%
same,Root Length (cm) 10th Day,tomato seedlings,4.95 cm
same,CCI 10th Day,tomato seedlings,14.89
same,Root Length % Increase over control,tomato seedlings,48.91%
same,mortality at 1 mL or g/L,Spodoptera litura [9]; [20],21.1%
same,mortality at 1 mL or g/L,Spodoptera litura [9]; [21],25%
same,Total No. of dead insect at 48 Hrs.,Thrips [10],4.25
same,Total No. of dead insect at 48 Hrs.,Aphid [11],6.00
same,% Corrected Mortality at 48 Hrs.,Aphid [11]; 48 hrs,54.29%
same,% Mortality at 48 Hrs.,Aphid [11]; 48 hrs,60.00%
same,mortality at 1 mL or g/L,Aphid [12]; [22],64.7%
same,mortality at 1 mL or g/L,Aphid [12]; [23],70%
same,% Mortality at 48 Hrs.,Mite [13],45.00%
same,Total No. of dead insect at 48 Hrs.,Mite [13],45.00
same,% Corrected Mortality at 48 Hrs.,Mite [13],42.11%
same,Total No. of dead insect at 72 Hrs.,Spodoptera litura [14],2.50
same,Total No. of dead insect at 48 Hrs.,Mealy Bug [15],6.50
same,% Mortality at 48 Hrs.,Mealy Bug [15],65.00%
same,% Corrected Mortality at 48 Hrs.,Mealy Bug [15],63.16%
same,Total No. of dead insect at 72 Hrs.,Helicoverpa armigera [16],4.50
same,% Mortality at 72 Hrs.,Helicoverpa armigera [16],45.00%
same,% Corrected Mortality at 72 Hrs.,Helicoverpa armigera [16],45.00%
same,mortality at 1 mL or g/L,Thrips [17]; [22],34.3%
same,mortality at 1 mL or g/L,Thrips [17]; [23],42.5%
same,inhibition of growth at 1 mL or g/L,Alternaria alternata [18]; […],34.1%
same,Mean colony Diameter (mm),Alternaria alternata [18]; [24],58.00 mm
O=C(/C=C/C=C/c1ccc2c(c1)OCO2)N1CCCCC1 [Piperine],Total No. of dead insect at 48 Hrs.,Aphid [1],70.00
same,% Mortality at 72 Hrs.,Helicoverpa armigera [2],67.50%
same,% Corrected Mortality at 72 Hrs.,Helicoverpa armigera [2],67.50%
same,Acaricidal Activity - Mode of action,[3]; [19],Cause dehydration of mites
same,Antifungal Activity - Mode of action,[3]; [19],Inhibition of the fungal
same,Phytotonic Effect,[3],Boost plant
same,% Mortality at 48 Hrs.,Mealy Bug [4],57.50%
same,Total No. of dead insect at 48 Hrs.,Mealy Bug [4],57.50
same,% Corrected Mortality at 48 Hrs.,Mealy Bug [4],52.78%
same,CCI 5th Day,chili seedlings,13.30
same,Plant Height (cm) 5th Day,chili seedlings,6.30 cm
same,CCI % Increase over pre on 10th Day,chili seedlings,38.67%
same,Plant Height % Increase over pre on 10th Day,chili seedlings,54.78%
same,Root Lenght (cm) 10th Day,chili seedlings,3.25 cm
same,Stem Girth % Increase over pre on 10th Day,chili seedlings,39.49%
same,CCI 10th Day,chili seedlings,14.2
same,Plant Height (cm) 10th Day,chili seedlings,7.12 cm
same,Root Lenght % Increase over control,chili seedlings,18.81%
same,% Mortality at 48 Hrs.,Thrips [5],32.50%
same,Total No. of dead insect at 48 Hrs.,Thrips [5],32.50
same,% Corrected Mortality at 48 Hrs.,Thrips [5],25.00%
same,% Disease reduction over Control,Alternaria alternata [6],53.72%
same,% Mortality at 72 Hrs.,Spodoptera litura [7],70.00%
same,% Corrected Mortality at 72 Hrs.,Spodoptera litura [7],68.42%
same,Total No. of dead insect at 48 Hrs.,Mite [8],6.25
same,% Corrected Mortality at 48 Hrs.,Mite [8],59.46%
same,% Mortality at 48 Hrs.,Mite [8],62.50%
same,Plant Height 5th Day,tomato seedlings,6.41 cm
same,Stem Girth 5th Day,tomato seedlings,1.80 mm
same,Plant Height 10th Day,tomato seedlings,7.02 cm
same,Stem Girth 10th Day,tomato seedlings,2.24 mm
same,Plant Height % Increase over pre on 10th Day,tomato seedlings,30.48%
same,Stem Girth % Increase over pre on 10th Day,tomato seedlings,57.52%
same,CCI 5th Day,tomato seedlings,13.89
same,CCI % Increase over pre on 10th Day,tomato seedlings,20.71%
same,Root Length (cm) 10th Day,tomato seedlings,3.93 cm
same,CCI 10th Day,tomato seedlings,14.63
same,Root Length % Increase over control,tomato seedlings,18.18%
same,mortality at 1 mL or g/L,Spodoptera litura [9]; [20],71%
same,mortality at 1 mL or g/L,Spodoptera litura [9]; [21],72.5%
same,Total No. of dead insect at 48 Hrs.,Thrips [10],4.00
same,Total No. of dead insect at 48 Hrs.,Aphid [11],7.00
same,% Corrected Mortality at 48 Hrs.,Aphid [11]; 48 hrs,65.71%
same,mortality at 1 mL or g/L,Aphid [12]; [22],64.7%
same,mortality at 1 mL or g/L,Aphid [12]; [23],70%
same,% Mortality at 48 Hrs.,Mite [13],60.00%
same,Total No. of dead insect at 48 Hrs.,Mite [13],60.00
same,% Corrected Mortality at 48 Hrs.,Mite [13],57.89%
same,Total No. of dead insect at 72 Hrs.,Spodoptera litura [14],7.25
same,Total No. of dead insect at 48 Hrs.,Mealy Bug [15],5.25
same,% Mortality at 48 Hrs.,Mealy Bug [15],52.50%
same,% Corrected Mortality at 48 Hrs.,Mealy Bug [15],50.00%
same,Total No. of dead insect at 72 Hrs.,Helicoverpa armigera [16],7.00
same,% Mortality at 72 Hrs.,Helicoverpa armigera [16],70.00%
same,% Corrected Mortality at 72 Hrs.,Helicoverpa armigera [16],70.00%
same,mortality at 1 mL or g/L,Thrips [17]; [22],31.4%
same,mortality at 1 mL or g/L,Thrips [17]; [23],40%
same,Mean colony Diameter (mm),Alternaria alternata [18]; [24],52.00 mm
same,inhibition of growth at 1 mL or g/L,"Alternaria alternata [18]; poisoned food technique, PDA medium, dose 1 ml/gm/lit., after seven days, vs untreated control, read-out: % Inhibition of growth",40.9%
